Experimental findings from ChEMBL document CHEMBL4765299 (Eur J Med Chem, 2020) are described below.

Assay [1] can be described thus: against C against y against t against o against t against o against x against i against c against i against t against y against a against g against a against i against n against s against t against h against u against m against a against n against H against F against L against - against 1 against c against e against l against l against s against a against s against s against e against s against s against e against d against a against s against r against e against d against u against c against t against i against o against n against i against n against c against e against l against l against v against i against a against b against i against l against i against t against y against m against e against a against s against u against r against e against d against a against f against t against e against r against 7 against 2 against h against r against s against b against y against M against T against T against a against s against s against a against y against. To be noted: Homo sapiens, HFL1. In kind it is ADME, tissue-based.

Assay [2] is described as follows: against A against n against t against i against p against r against o against l against i against f against e against r against a against t against i against v against e against a against c against t against i against v against i against t against y against a against g against a against i against n against s against t against h against u against m against a against n against K against 5 against 6 against 2 against c against e against l against l against s against a against s against s against e against s against s against e against d against a against s against r against e against d against u against c against t against i against o against n against i against n against c against e against l against l against v against i against a against b against i against l against i against t against y against m against e against a against s against u against r against e against d against a against f against t against e against r against 7 against 2 against h against r against s against b against y against M against T against T against a against s against s against a against y against. Format: functional, tissue-based, Homo sapiens. To be noted: k562.

A short description of assay [3]: against A against n against t against i against p against r against o against l against i against f against e against r against a against t against i against v against e against a against c against t against i against v against i against t against y against a against g against a against i against n against s against t against h against u against m against a against n against M against D against A against - against M against B against - against 2 against 3 against 1 against c against e against l against l against s against a against s against s against e against s against s against e against d against a against s against r against e against d against u against c against t against i against o against n against i against n against c against e against l against l against v against i against a against b against i against l against i against t against y against m against e against a against s against u against r against e against d against a against f against t against e against r against 7 against 2 against h against r against s against b against y against M against T against T against a against s against s against a against y against. In kind it is functional, tissue-based, Homo sapiens. As to conditions: mda-mb-231.

Another assay deals with HepG2. Description: Antiproliferative against human HepG2 cells assessed as reduction in cell viability measured after 72 hrs by MTT assay. To be noted: HepG2, 72 h. In kind it is functional, cell-based.
Assay [4] can be described thus: against A against n against t against i against p against r against o against l against i against f against e against r against a against t against i against v against e against a against c against t against i against v against i against t against y against a against g against a against i against n against s against t against h against u against m against a against n against H against C against T against - against 8 against c against e against l against l against s against a against s against s against e against s against s against e against d against a against s against r against e against d against u against c against t against i against o against n against i against n against c against e against l against l against v against i against a against b against i against l against i against t against y against m against e against a against s against u against r against e against d against a against f against t against e against r against 7 against 2 against h against r against s against b against y against M against T against T against a against s against s against a against y against. As to conditions: hct-8. In kind it is functional, tissue-based, Homo sapiens.

The subject of assay [5] is H22. Description: Antiproliferative activity against mouse H22 cells assessed as inhibition of cell growth by MTT assay. Format: functional, cell-based. For orientation: Tetrazolium assays rely on reduction of a dye to a coloured formazan, in cell work by metabolically active cells.
For assay [6], the species on record is Sus scrofa. Description: Induction of porcine brain tubulin polymerization assessed as induction of microtubule assembly by measuring increase in absorbance at 10 uM measured for 60 mins by fluorescence based analysis. Format: tissue-based.
Assay [7] relates to H22. Description: Anti-tumor activity against mouse H22 cells allografted in ICR mice assessed as reduction in tumor weight at 6 mg/kg, iv administered every 2 days for 21 days. Format: functional. As to conditions: 504 h, time 21 day.
Assay [8] concerns K562. Description: Induction of cell cycle arrest in human K562 cells assessed as accumulation at S phase at 6 nM incubated for 48 hrs by propidium iodide/RNase staining based flow cytometry (reference value: 53.42%). In kind it is functional. For orientation: Flow cytometry measures light scatter and fluorescence of single cells or particles in a stream.
For assay [9], the system named is K562. Description: Induction of cell cycle arrest in human K562 cells assessed as accumulation at G2/M phase at 12 nM incubated for 48 hrs by propidium iodide/RNase staining based flow cytometry (reference value: 7.83%). Format: functional.
The subject of assay [10] is K562. Put plainly: Induction of cell cycle arrest in human K562 cells assessed as accumulation at S phase at 12 nM incubated for 48 hrs by propidium iodide/RNase staining based flow cytometry (reference value: 53.42%). Format: functional.
For assay [11], the system named is K562. Description: Induction of cell cycle arrest in human K562 cells assessed as accumulation at G1 phase at 6 nM incubated for 48 hrs by propidium iodide/RNase staining based flow cytometry (reference value: 38.75%). Format: functional.
For assay [12], the system named is K562. Description: Induction of cell cycle arrest in human K562 cells assessed as accumulation at G1 phase at 3 nM incubated for 48 hrs by propidium iodide/RNase staining based flow cytometry (reference value: 38.75%). Format: functional.
The species entered for assay [13] is Sus scrofa. Put plainly: Displacement of [3H]colchicine from porcine brain tubulin at 1 uM incubated for 2 hrs by TopCount scintillation counting method relative to control. In kind it is tissue-based. (Displacement assays read how much labelled ligand stays bound in the presence of the test substance.)
Assay [14] has as its system K562. Put plainly: Induction of cell cycle arrest in human K562 cells assessed as accumulation at G2/M phase at 3 nM incubated for 48 hrs by propidium iodide/RNase staining based flow cytometry (reference value: 7.83%). Format: functional.
For assay [15], the system named is K562. Put plainly: Induction of cell cycle arrest in human K562 cells assessed as accumulation at G1 phase at 12 nM incubated for 48 hrs by propidium iodide/RNase staining based flow cytometry (reference value: 38.75%). In kind it is functional.
For assay [16], the species on record is Sus scrofa. Put plainly: Displacement of [3H]colchicine from porcine brain tubulin at 5 uM incubated for 2 hrs by TopCount scintillation counting method relative to control. In kind it is tissue-based.
For assay [17], the system named is K562. Description: Induction of cell cycle arrest in human K562 cells assessed as accumulation at S phase at 3 nM incubated for 48 hrs by propidium iodide/RNase staining based flow cytometry (reference value: 53.42%). Format: functional.
In assay [18] the test system is H22. Description: Anti-tumor activity against mouse H22 cells allografted in ICR mice assessed as reduction in tumor weight at 15 mg/kg, iv administered daily for 21 days. Format: functional. To be noted: 504 h, time 21 day.
Assay [19] has as its system K562. Put plainly: Induction of cell cycle arrest in human K562 cells assessed as accumulation at G2/M phase at 6 nM incubated for 48 hrs by propidium iodide/RNase staining based flow cytometry (reference value: 7.83%). Format: functional.
A short description of assay [20]: Inhibition of porcine brain tubulin polymerization assessed as inhibition of microtubule assembly by measuring decrease in absorbance measured for 60 mins by fluorescence based analysis. Format: tissue-based, Sus scrofa.
Assay [21] deals with H22. Description: Anti-tumor activity against mouse H22 cells allografted in ICR mice assessed as reduction in tumor weight at 30 mg/kg, iv administered daily for 21 days. In kind it is functional. As to conditions: 504 h, time 21 day.

Broadly, the IC50 is the concentration needed to halve the response being measured. Broadly, the inhibition in vivo is the relative decrease from the control value, in per cent. For orientation: inhibition means how much of the control response was suppressed. Lower therefore signals a weak effect.

The source made the active and inactive calls. The rule behind the calls is not given here.

Take `C=C(c1ccnc(C)c1)c1ccc(OC)c(O)c1`: the IC50 turned out to be 189 nM in assay [1]; 24 nM in assay [2]; 31 nM in assay [3]; 31 nM with HepG2; 32 nM in [4].
Compound `C=C(c1cc(Cl)nc(N2CCNCC2)c1)c1ccc(OC)c(O)c1` showed a 50% inhibitory concentration (IC50) in assay [2] above 1000 nM.
Still for that read-out and setting: as for `C=C(c1cc(OC)nc(OC)c1)c1ccc2c(c1)OCO2`, the figure is above 1000 nM.
Regarding `C=C(c1cc(C)nc(C)c1)c1ccc2c(ccn2C)c1`, the IC50 in [1] came to 176 nM; in assay [2], 21 nM; in assay [3], 34 nM; in the assay with HepG2, 30 nM; in assay [4] it was 31 nM.
Compound `C=C(c1cc(OC)nc(OC)c1)c1cn(C)c2ccccc12` displayed an IC50 in assay [2] above 1000 nM.
The compound `C=C(c1cc(OC)nc(OC)c1)c1cccc2[nH]ccc12` showed an IC50 in assay [2] above 1000 nM.
In turn, `C=C(c1cc(OC)nc(OC)c1)c1ccc(OC)c(OC)c1` yielded an IC50 in assay [2] above 1000 nM.
`C=C(c1ccncc1)c1ccc(OC)c(O)c1`: the IC50 in assay [1] worked out at 696 nM; in assay [2], 151 nM; in assay [3], 208 nM; with HepG2, 261 nM; in assay [4], 222 nM.
For the compound `CC(=O)O[C@H]1C(=O)[C@@]2(C)[C@H]([C@H](OC(=O)c3ccccc3)[C@]3(O)C[C@H](OC(=O)[C@H](O)[C@@H](NC(=O)c4ccccc4)c4ccccc4)C(C)=C1C3(C)C)[C@]1(OC(C)=O)CO[C@@H]1C[C@@H]2O` [PACLITAXEL], the IC50 in the assay on H22 [5] came out at 84 nM. Besides, in the assay listed under Sus scrofa [6], the outcome was Active. The inhibition in vivo at 6 mg/kg in the assay with H22 [7] amounted to 64.3%.
In the case of `C=C(c1cc(OC)nc(OC)c1)c1c[nH]c2ccccc12`, the IC50 in assay [2] is above 1000 nM.
Take `C=C(c1cc(Cl)nc(N(C)C)c1)c1ccc(OC)c(O)c1`: the IC50 was determined as 114 nM in [1]; 16 nM in [2]; 29 nM in [3]; 27 nM with HepG2; 29 nM in assay [4].
Regarding `C=C(c1cc(N2CCOCC2)nc(N2CCOCC2)c1)c1ccc(OC)c(O)c1`, the IC50 in [2] was above 1000 nM.
Still for that read-out and setting: as for `C=C(c1cc(OC)nc(OC)c1)c1ccc2[nH]ccc2c1`, the figure is above 1000 nM; as for `C=C(c1cc(OC)nc(OC)c1)c1cc(OC)c(OC)c(OC)c1`, above 1000 nM.
Regarding `C=C(c1cc(C)nc(C)c1)c1ccc(OC)c(O)c1`, the IC50 in assay [1] was 86 nM; in assay [2], 12 nM; in [3], 29 nM; in the assay with HepG2 it was 27 nM; in [4] it was 31 nM.
Take `C=C(c1cc(OC)nc(OC)c1)c1c[nH]c2cc(OC)ccc12`: the IC50 in assay [2] was above 1000 nM.
In assay [2], `C=C(c1cc(OC)nc(OC)c1)c1cccc2c1ccn2C` yielded an IC50 above 1000 nM.
As for `C=C(c1cc(OC)nc(OC)c1)c1ccc(OC)c(O)c1`, the IC50 in assay [1] was 792 nM; in assay [2], 44 nM; in assay [3], 84 nM; in the assay on HepG2, 77 nM; in assay [4], 86 nM.
In turn, `C=C(c1cc(N2CCCC2)nc(N2CCCC2)c1)c1ccc(OC)c(O)c1` gave a concentration for half-maximal inhibition (IC50) in assay [2] above 1000 nM.
As for `C=C(c1cc(OC)nc(OC)c1)c1ccc2c(ccn2C)c1`, the IC50 in assay [1] is 879 nM; in assay [2], 181 nM; in assay [3] it was 308 nM; in the assay on HepG2, 300 nM; in assay [4], 288 nM.
Compound `C=C(c1cc(OC)nc(OC)c1)c1cn(C)c2cc(OC)ccc12` displayed an IC50 in assay [2] above 1000 nM.
As to `C=C(c1ccc(OC)c(O)c1)c1cc(OC)c(OC)c(OC)c1`, the Activity with K562 [8] turned out to be 48.36%; in the assay with K562 [9], 18.44%; in the assay with K562 [10], 45.55%; with K562 [11], 38.07%; in the assay on K562 [12], 37.19%; in the assay with K562 [14], 11.45%. In addition, the Activity in the assay on K562 [15] came out at 36.01%; in the assay with K562 [17], 51.37%; with K562 [19], 13.57%. Also, the half-inhibitory concentration (IC50) with H22 [5] was 8 nM; in assay [1] it was 86 nM; in [2], 6 nM; in assay [3], 12 nM; in the assay on HepG2, 10 nM; in [4] it was 10 nM. The IC50 in assay [20] stood at 2370 nM. The inhibition in the assay listed under Sus scrofa [13] was 74%; in the assay filed under Sus scrofa [16], 84.6%. Moreover, the inhibition in vivo at 15 mg/kg/day with H22 [18] amounted to 56.6%. Further, the inhibition in vivo at 30 mg/kg/day in the assay on H22 [21] came to 66.9%.
